Laboratory results published in patent US8252822B2, “Heterocyclic compounds and uses as anticancer agents” (Acea Biosciences, Inc., priority 2007, dated 2012).
pIC50: −log10 of the molar value. Like-named read-outs stand apart in the source and are kept apart here.

What was measured:
Hela = test: RT-CES cell proliferation inhibition, Hela; assay type: cell-based; settings: Homo sapiens
Description: (§1) The biological activity of compounds disclosed herein was monitored and profiled using the Real-Time Cell Electronic Sensing (RT-CES®) system from ACEA Biosciences, Inc. The RT-CES system utilizes cell-substrate impedance technology to monitor cellular behavior inside tissue culture wells in a microtiter plate format. The technology features in the integration of molecular and cell biology with microelectronics and is based on the electronic detection of biological assay process. The details of this cell electronic sensing technology and associated devices, systems and methods of use as described in U.S. provisional application No. 60/379,749, filed on Jul. […]
(§2) For measurement of cell-substrate or cell-electrode impedance using RT-CES technology, microelectrodes having appropriate geometries are fabricated onto the bottom surfaces of microtiter plate or similar device, facing into the wells. […] When there are changes to the biological status of the cells analogue electronic readout signals are measured automatically and in real time, and are converted to digital signals for processing and for analysis. In a RT-CES system, a cell index (arbitrary representation of change in impedance) is automatically derived and provided based on measured electrode impedance values. […]
(§3) To quantify cell status based on the measured cell-electrode impedance, a parameter termed Cell Index is derived. […]

B16-luc = test: RT-CES cell proliferation inhibition, B16-luc; assay type: cell-based, Rat; settings: Mus musculus
Description: as §1, §2, §3

ST30 = test: RT-CES cell proliferation inhibition, ST30; assay type: cell-based; settings: Homo sapiens
Description: as §1, §2, §3

MDCK = test: RT-CES cell proliferation inhibition, MDCK; assay type: cell-based, Monkey; settings: Canis lupus familiaris
Description: as §1, §2, §3

Panc-1 = test: RT-CES cell proliferation inhibition, Panc-1; assay type: cell-based; settings: Homo sapiens
Description: as §1, §2, §3

PC3 = test: RT-CES cell proliferation inhibition, PC3; assay type: cell-based; settings: Homo sapiens, PC-3
Description: as §1, §2, §3

Jurkat = test: RT-CES cell proliferation inhibition, Jurkat; assay type: cell-based; settings: Homo sapiens, 24 hrs
Description: as §1, §2, §3

S180 sarcoma = test: Anti-tumor activity against S180 bearing mouse model; assay type: in vivo, ICR mice; settings: for Inhibition Rate (%) / Tumor Weight: qd for 9 days; for Body Weight (g) Start: mouse, in vivo
Procedure: ACEA100160 (2-(4-ethoxyphenyl)amino-4-(6-methylimidazo[1,2-a]pyrimidin-3-yl)thiazole) and ACEA 100162 (2-(4-ethoxyphenyl)amino-4-(6-methylimidazo[2,1-b]thiazol-5-yl)thiazole) are prepared at concentration of 8 mg/ml in solution containing 20% HP-beta-CD dextrose (D5W). The solvent HP-beta-CD solution is used as a vehicle negative control.
ICR mice, male, 21.4±1.5 g
S180 sarcoma: murine cancer cell line S180.
The malignant ascites model of ICR mouse was induced by S180 cells.
Under a sterilized condition, sacrifice the ICR murine S180 bearing mice, take out of the ascites and dilute with NS to certain cell numbers. Inject 0.2 ml cell suspension (10^6 cells) subcutaneously into the left flank on ICR mice. On the first treatment day before iv or ip, implanted animals are randomly divided into ten groups as following. The drugs were administrated in the schedule of Table 11 respectively. The solvent HP-beta-CD solution is used as a vehicle negative control. Observe clinical signs at least daily.
Tumor weight was recorded. The tumor inhibitory rate was calculated as follows: inhibitory rate=1-Wt/W0, where Wt is the average weight of each drug treatment group and W0 is the average weight of negative control group. Results are given as mean±SD values from n animals. Comparisons between groups were made with Student's two-tailed t test and a P<0.05 was considered significant.

SH-SY5Y = test: RT-CES cell proliferation inhibition, SH-SY5Y; assay type: cell-based; settings: Homo sapiens
Description: as §1, §2, §3

HepG2 = test: RT-CES cell proliferation inhibition, HepG2; assay type: cell-based; settings: Homo sapiens
Description: as §1, §2, §3

Br.CCOc1ccc(Nc2nc(-c3c(C)nc4sccn34)cs2)cc1 [Compound 27, 2-(4-ethoxyphenyl)amino-4-(6-methylimidazo[2,1-b]thiazol-5-yl)thiazole]
pIC50 (Hela; 24 hrs, read-out: IC50 (24 hr)): 8.23 | pIC50 (Hela; 48 hrs, read-out: IC50 (48 hr)): 8.16 | pIC50 (B16-luc; 24 hrs, read-out: IC50 (24 hr)): 6.15 | pIC50 (B16-luc; 48 hrs, read-out: IC50 (48 hr)): 6.19 | pIC50 (ST30; ST30, 24 hrs, read-out: IC50 (24 hr)): 7.41 | pIC50 (ST30; ST30, 48 hrs, read-out: IC50 (48 hr)): 7.37 | pIC50 (MDCK; 24 hrs, read-out: IC50 (24 hr)): 6.03 | pIC50 (MDCK; 48 hrs, read-out: IC50 (48 hr)): 5.73 | pIC50 (Panc-1; Panc-1, 24 hrs, read-out: IC50 (24 hr)): 6.95 | pIC50 (Panc-1; Panc-1, 48 hrs, read-out: IC50 (48 hr)): 6.37 | pIC50 (PC3; PC3, 24 hrs, read-out: IC50 (24 hr)): 7.96 | pIC50 (PC3; PC3, 48 hrs, read-out: IC50 (48 hr)): 8.27 | pIC50 (Jurkat): 7.34 | Inhibition Rate (%) (S180 sarcoma; S180, IP, 40 mg/kg): 59.3% | Tumor Weight (S180 sarcoma; S180, IP, 40 mg/kg): 0.61 ± 0.21 g | Inhibition Rate (%) (S180 sarcoma; S180, IP, 80 mg/kg): 77.2% | Tumor Weight (S180 sarcoma; S180, IP, 80 mg/kg): 0.34 ± 0.16 g | Inhibition Rate (%) (S180 sarcoma; S180, IV, 40 mg/kg): 60.7% | Tumor Weight (S180 sarcoma; S180, IV, 40 mg/kg): 0.59 ± 0.24 g | Body Weight (g) Start (S180 sarcoma; ip, 40 mg/kg): 20.6 ± 0.4 g | Body Weight (g) Start (S180 sarcoma; ip, 80 mg/kg): 21.8 ± 1.5 g | Body Weight (g) Start (S180 sarcoma; iv, 40 mg/kg): 21.0 ± 0.4 g | pIC50 (SH-SY5Y; 24 hrs, read-out: IC50 (24 hr)): 7.87 | pIC50 (SH-SY5Y; 48 hrs, read-out: IC50 (48 hr)): 8.17 | pIC50 (HepG2; HepG2, 24 hrs, read-out: IC50 (24 hr)): < 6.70 | pIC50 (HepG2; HepG2, 48 hrs, read-out: IC50 (48 hr)): < 6.70
